Assays:
[1] = system: HT-29 [B-Raf V600E mutant]; assay: Anti-proliferative activity, SRB assay, 72 hours; type: cell-based; settings: Homo sapiens, read-out: CELLULAR IC50 [μM] HT-29 [B-Raf V600E mutant]
Procedure: We observed the surprising finding that compounds of the invention were useful in inhibiting proliferation of HT-29 tumor cells (see Table 3).
(§1) Cells were exposed to the test compounds at various concentrations appropriate to determine an IC50, for 72 hours, and cell proliferation was measured using the SRB assay according to Shekan et al (J Natl Cancer Inst (1990) 82, 1107-112) in order to estimate the IC50 values shown in Table 3.
(§2) Briefly, cells were plated in 96 well dishes 24 hours prior to compound addition at the densities specified in Table 11.1.
(§3) The assay was terminated with the addition of ice cold 10% TCA after growth medium has been removed and the plates were incubated over night at 4° C. The plates were then washed 5 times with water and 100 μl of a Sulforhodamine B solution ([…]) was added to each well. The plates were then incubated for 10 minutes at room temperature before removal of unbound dye by washing with 1% acetic acid. The bound dye was solubilized with 10 mM Trizma base and the absorbance read at OD520.
(§4) Inhibitory activity of the compounds was calculated as % inhibition of cell proliferation compared to cells treated with the solvent (DMSO).

A-431 [B-Raf wildtype] = assay: Anti-proliferative activity, SRB assay, 72 hours; type: cell-based; settings: Homo sapiens, read-out: CELLULAR IC50 [μM] A-431 [B-Raf wildtype]
Procedure: as §1, §2, §3, §4

Compound	IC50 [1] [µM]	IC50 (A-431 [B-Raf wildtype]) [µM]
COn1c(=O)c(-c2cc(NC(=O)Nc3cccc(C(F)(F)F)c3F)ccc2Cl)cc2cnc(NCCN(C)C)nc21 [Compound 48, 1-{4-Chloro-3-[2-(2-dimethylamino-ethylamino)8-methoxy-7-oxo-7,8-dihydro-pyrido[2,3-d]pyrimidin-6-yl]-phenyl}-3-(2-fluoro-3-trifluoromethyl-phenyl)-urea]	< 5	> 10
COn1c(=O)c(-c2ccc(NC(=O)Cc3ccc(Cl)c(C(F)(F)F)c3)cc2Cl)cc2cnc(NCCN(C)C)nc21 [Compound 57, N-{3-Chloro-4-[2-(2-dimethylamino-ethylamino)-8-methoxy-7-oxo-7,8-dihydro-pyrido[2,3-d]pyrimidin-6-yl]-phenyl}-2-(4-chloro-3-trifluoromethyl-phenyl)-acetamide]	< 10	< 10
COn1c(=O)c(-c2ccc(NC(=O)c3ccc(Cl)c(OC(F)(F)F)c3)cc2Cl)cc2cnc(NCCN(C)C)nc21 [Compound 52, 4-Chloro-N-{3-chloro-4-[2-(2-dimethylamino-ethylamino)-8-methoxy-7-oxo-7,8-dihydro-pyrido[2,3-d]pyrimidin-6-yl]-phenyl}-3-trifluoromethoxy-benzamide]	< 5	< 10
COn1c(=O)c(-c2cc(NC(=O)c3ccc(Cl)cc3)ccc2Cl)cc2cnc(NCCN(C)C)nc21 [Compound 38, 4-Chloro-N-{4-chloro-3-[2-(2-dimethylamino-ethylamino)-8-methoxy-7-oxo-7,8-dihydro-pyrido[2,3-d]pyrimidin-6-yl]-phenyl}-benzamide]	> 10	> 10
COn1c(=O)c(-c2cc(NC(=O)c3cc(Cl)nc(N4CCN(C)CC4)c3)ccc2Cl)cc2cnc(NCCN(C)C)nc21 [Compound 62, 2-Chloro-N-(4-chloro-3-(2-(2-(dimethylamino)ethylamino)-8-methoxy-7-oxo-7,8-dihydropyrido[2,3-d]pyrimidin-6-yl)phenyl)-6-(4-methyl-piperazin-1-yl)-isonicotinamide]	< 5	> 10
COn1c(=O)c(-c2cc(NC(=O)c3cc(Cl)nc(NCc4ccc(N5CCN(C)CC5)cc4)c3)ccc2Cl)cc2cnc(NCCN(C)C)nc21 [Compound 67, 2-Chloro-N-(4-chloro-3-(2-(2-(dimethylamino)ethylamino)-8-methoxy-7-oxo-7,8-dihydropyrido[2,3-d]pyrimidin-6-yl)phenyl)-6-(4-(4-methylpiperazin-1-yl)-benzylamino)-isonicotinamide]	< 5	< 10
COn1c(=O)c(-c2ccc(NC(=O)c3ccc(CN4CCN(C)CC4)cc3)cc2Cl)cc2cnc(NCCN(C)C)nc21 [Compound 53, N-{3-Chloro-4-[2-(2-dimethylamino-ethylamino)-8-methoxy-7-oxo-7,8-dihydro-pyrido[2,3-d]pyrimidin-6-yl]-phenyl}-4-(4-methyl-piperazin-1-ylmethyl)-benzamide]	> 10	> 10
COn1c(=O)c(-c2cc(NC(=O)c3cc(Cl)nc(NC4CCN(C)CC4)c3)ccc2Cl)cc2cnc(NCCN(C)C)nc21 [Compound 66]	< 10	> 10
COn1c(=O)c(-c2cc(NC(=O)c3ccc(C(F)(F)F)cc3F)ccc2Cl)cc2cnc(NCCN(C)C)nc21 [Compound 20]	> 10	> 10
COn1c(=O)c(-c2cc(NC(=O)Nc3ccc(Cl)cc3)ccc2Cl)cc2cnc(NCCN(C)C)nc21 [Compound 46, 1-{4-Chloro-3-[2-(2-dimethylamino-ethylamino)-8-methoxy-7-oxo-7,8-dihydro-pyrido[2,3-d]pyrimidin-6-yl]-phenyl}-3-(4-chloro-phenyl)-urea]	< 5	> 10
COn1c(=O)c(-c2cc(NC(=O)c3ccccc3Cl)ccc2Cl)cc2cnc(NCCN(C)C)nc21 [Compound 36, 2-Chloro-N-{4-chloro-3-[2-(2-dimethylamino-ethylamino)-8-methoxy-7-oxo-7,8-dihydro-pyrido[2,3-d]pyrimidin-6-yl]-phenyl}-benzamide]	> 10	> 10
COn1c(=O)c(-c2cc(NC(=O)c3ccccc3)ccc2Cl)cc2cnc(NCCN(C)C)nc21 [Compound 33, N-{4-Chloro-3-[2-(2-dimethylamino-ethylamino)-8-methoxy-7-oxo-7,8-dihydro-pyrido[2,3-d]pyrimidin-6-yl]-phenyl}-benzamide]	> 10	> 10
COc1ccc(C(=O)Nc2ccc(Cl)c(-c3cc4cnc(NCCN(C)C)nc4n(OC)c3=O)c2)cc1Cl [Compound 21, 3-Chloro-N-{4-chloro-3-[2-(2-dimethylamino-ethylamino)-8-methoxy-7-oxo-7,8-dihydro-pyrido[2,3-d]pyrimidin-6-yl]-phenyl}-4-methoxy-benzamide]	< 5	> 10
COn1c(=O)c(-c2cc(NC(=O)c3cc(Cl)nc(Cl)c3)ccc2Cl)cc2cnc(NCCN(C)C)nc21 [Compound 7, 2,6-Dichloro-N-(4-chloro-3-(2-(2-(dimethylamino)ethylamino)-8-methoxy-7-oxo-7,8-dihydropyrido[2,3-d]pyrimidin-6-yl)phenyl)-isonicotinamide]	< 10	> 10
COn1c(=O)c(-c2ccc(NC(=O)c3ccc(OCc4cccc(F)c4)c(Cl)c3)cc2Cl)cc2cnc(NCCN(C)C)nc21 [Compound 55, 3-Chloro-N-{3-chloro-4-[2-(2-dimethylamino-ethylamino)-8-methoxy-7-oxo-7,8-dihydro-pyrido[2,3-d]pyrimidin-6-yl]-phenyl}-4-(3-fluoro-benzyloxy)-benzamide]	< 5	< 10
COn1c(=O)c(-c2cc(NC(=O)c3cc(Cl)cc(Cl)c3)ccc2Cl)cc2cnc(NCCN(C)C)nc21 [Compound 22, 3,5-Dichloro-N-{4-chloro-3-[2-(2-dimethylamino-ethylamino)-8-methoxy-7-oxo-7,8-dihydro-pyrido[2,3-d]pyrimidin-6-yl]-phenyl}-benzamide]	< 5	> 10
COn1c(=O)c(-c2cc(NC(=O)Cc3cccc(C(F)(F)F)c3)ccc2Cl)cc2cnc(NCCN(C)C)nc21 [Compound 25, N-{4-Chloro-3-[2-(2-dimethylamino-ethylamino)-8-methoxy-7-oxo-7,8-dihydro-pyrido[2,3-d]pyrimidin-6-yl]-phenyl}-2-(3-trifluoromethyl-phenyl)-acetamide]	< 5	> 10
COn1c(=O)c(-c2ccc(NC(=O)c3ccc(Cl)c(C(F)(F)F)c3)cc2Cl)cc2cnc(NCCN(C)C)nc21 [Compound 6, 4-Chloro-N-{3-chloro-4-[2-(2-dimethylamino-ethylamino)-8-methoxy-7-oxo-7,8-dihydro-pyrido[2,3-d]pyrimidin-6-yl]-phenyl}-3-trifluoromethyl-benzamide]	< 5	< 10
COn1c(=O)c(-c2cc(NC(=O)c3ccc(C(F)(F)F)c(F)c3)ccc2Cl)cc2cnc(NCCN(C)C)nc21 [Compound 12, N-{4-Chloro-3-[2-(2-dimethylamino-ethylamino)-8-methoxy-7-oxo-7,8-dihydro-pyrido[2,3-d]pyrimidin-6-yl]-phenyl}-3-fluoro-4-trifluoromethyl-benzamide]	< 10	> 10
COn1c(=O)c(-c2cc(NC(=O)c3cc(C(F)(F)F)ccc3Cl)ccc2Cl)cc2cnc(NCCN(C)C)nc21 [Compound 29, 2-Chloro-N-{4-chloro-3-[2-(2-dimethylamino-ethylamino)-8-methoxy-7-oxo-7,8-dihydro-pyrido[2,3,-d]pyrimidin-6-yl]-phenyl}-5-trifluoromethyl-benzamide]	< 10	> 10
COn1c(=O)c(-c2ccc(NC(=O)c3cc(C(C)(C)C)nn3-c3ccccc3)cc2Cl)cc2cnc(NCCN(C)C)nc21 [Compound 56, 5-tert-Butyl-2-phenyl-2H-pyrazole-3-carboxylic acid {3-chloro-4-[2-(2-dimethylamino-ethylamino)-8-methoxy-7-oxo-7,8-dihydro-pyrido[2,3-d]pyrimidin-6-yl]-phenyl}-amide]	< 5	< 10
COn1c(=O)c(-c2cc(NC(=O)c3ccc(Cl)c(C(F)(F)F)c3)ccc2Cl)cc2cnc(NCCN(C)C)nc21 [Compound 3, 4-Chloro-N-{4-chloro-3-[2-(2-dimethylamino-ethylamino)-8-methoxy-7-oxo-7,8-dihydro-pyrido[2,3-d]pyrimidin-6-yl]-phenyl}-3-trifluoromethyl-benzamide]	< 5	> 10
COn1c(=O)c(-c2cc(NC(=O)c3ccc(C(F)(F)F)cc3)ccc2Cl)cc2cnc(NCCN(C)C)nc21 [Compound 34, N-{4-Chloro-3-[2-(2-dimethylamino-ethylamino)-8-methoxy-7-oxo-7,8-dihydro-pyrido[2,3-d]pyrimidin-6-yl]-phenyl}-4-trifluoromethyl-benzamide]	< 10	> 10
COn1c(=O)c(-c2cc(NC(=O)Nc3ccc(Oc4ccccc4)cc3)ccc2Cl)cc2cnc(NCCN(C)C)nc21 [Compound 45, 1-{4-Chloro-3-[2-(2-dimethylamino-ethylamino)-8-methoxy-7-oxo-7,8-dihydro-pyrido[2,3-d]pyrimidin-6-yl]-phenyl}-3-(4-phenoxy-phenyl)-urea]	< 5	< 10

Reference: US8232283B2, “Raf inhibitors” (Forma Therapeutics, Inc., priority 2008, dated 2012)
